A word on the Kd: it is the equilibrium constant for the complex coming apart. Higher therefore signals lower affinity.

For the assay, the target named is AKT (PH domain) (Homo sapiens, UniProt P31749). The assay is described as follows: intrinsic fluorescence quenching. It counts as binding.
Chain of AKT (PH domain) (P31749 1-123): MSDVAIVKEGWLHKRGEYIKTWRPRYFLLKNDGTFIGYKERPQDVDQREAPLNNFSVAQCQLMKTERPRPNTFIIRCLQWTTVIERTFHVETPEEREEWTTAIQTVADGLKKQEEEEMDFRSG

As for `COc1cc(/C=C/C(=O)O)ccc1O[C@@H]1O[C@H](C(=O)O)[C@@H](O)[C@H](O)[C@H]1O` [FA4G, ferulic-4′-O-glucuronide], binding was put at a Kd of 48.1 µM.
Regarding `O=C(O)/C=C/c1ccc(O)c(O)c1` [CA, caffeic acid], binding was put at a Kd of 183 µM.
Next, `O=C(O)/C=C/c1ccc(O[C@@H]2O[C@H](C(=O)O)[C@@H](O)[C@H](O)[C@H]2O)c(O)c1` [CA4G, caffeic-4′-O-glucuronide]: 37.9 µM; `COc1cc(/C=C/C(=O)O)ccc1O` [FA, ferulic acid]: 185 µM.
